The source of these data is patent US10927139B2, “Chemically cleavable group” (Tagworks Pharmaceuticals B.V., priority 2012, dated 2021).

Series [1] is described as follows: Binding of TCO-protected doxorubicin to beads coated with BSA-tetrazine and doxorubicin release (HPLC). Conditions: for time to complete release of free doxorubicin from the beads / release of free doxorubicin from the beads: PBS, 37° C.; for release of free doxorubicin from the beads: after 3 h. The procedure: Tetrazine functionalization of a BSA-coated particle has been described in J. Nucl. Med. 2013, 54, 1989-1995. Briefly, a solution of BSA (bovine serum albumin; 0.7 mg) in PBS was mixed with a 10 mg/mL solution of a bis-pyridyl-tetrazine-NHS derivative in DMF (35 μL, 30 eq. with respect to BSA) and the pH was adjusted to 9.0 with 1 M sodium carbonate buffer. The solution (125 μL total) was incubated at room temperature for 30 min then the unreacted tetrazine was removed from the solution by using a Zeba desalting spin column (7 kDa MW cut-off) pre-washed with PBS. UV measurements confirmed the presence of 12 tetrazine moieties per BSA molecule.
The eluate containing BSA-tetrazine in PBS was added to a 350 μL suspension of polystyrene beads (Polybeads, 0.5 μm, Polysciences) in H2O and the resulting suspension was incubated at +4° C. for 1 h on an end-over-end rotating mixer (10 rpm). After incubation, the suspension of beads coated with BSA-tetrazine was centrifuged at 12,000 rpm for 4 min. The supernatant was carefully removed and the pellet was resuspended in 1.5 mL PBS by using a tip sonicator at low power (Sonics VibraCell, 4×5 sec pulses, 40% of power). The centrifuging-resuspension cycle was repeated 2 times, after which the bead pellet was resuspended in 200 μL PBS and reacted with 7 nmol of TCO-protected doxorubicin (TCO-3-Doxorubin, 1 mM in DMSO).
After 5 min incubation at 37° C. in a thermomixer (350 rpm), the beads were removed by centrifugation and the supernatant was analyzed by HPLC on an Agilent Techologies system (1100 series) equipped with a fluorescence detector with λhex=485 nm and λem=590 nm. The sample was loaded on an Eclipse XDB-C18 column (5 μm, 4.6×150 mm^2, Agilent) which was eluted isocratically with 30% (v/v) acetonitrile in H2O containing 0.1% TFA (v/v) at 1 mL/min. HPLC analysis of the supernatant confirmed that ca. 75% of TCO-doxorubicin was bound to the beads.
The bead pellet was resuspended in 1.5 mL PBS and centrifuged twice to eliminate unbound TCO-doxorubicin. Subsequently, the beads were resuspended in 400 μL PBS and incubated at 37° C. At various times, aliquots of the supernatant were analyzed by HPLC. The chromatographic profiles (FIG. 2) show release of free doxorubicin (Rt=6.2 min) from the beads with time (>45% after 3 h; complete within 24 h).

A short description of series [2]: TCO-doxorubicin with uncoated and unmodified beads (comparison). Particulars: same conditions.
Series [3] is described as follows: Deprotection of N-TCO protective group (Example 6, 1H-NMR). Particulars: chloroform with trifluoroacetic acid; 3,6-dimethyl-1,2,4,5-tetrazine (8); 20° C. for 40 min. How it is done:
(N-TCO-6-aminohexyl) phenylcarbamate (5.61 mg; 1.44*10^−5 mol) was dissolved in chloroform (0.6 mL) and trifluoroacetic acid (20 mg; 1.75*10^−4 mol) was added. Subsequently, a solution of 3,6-dimethyl-1,2,4,5-tetrazine (8, 1.90 mg; 1.73*10^−5 mol) in chloroform (0.1 mL) was added. The pink, homogeneous mixture was stirred at 20° C. for 40 min. According to ^1H-NMR, more than 95% was deprotected. The reaction mixture was washed with aqueous potassium carbonate (0.5 mL 0.4 M), dried over sodium sulfate, filtered, and evaporated to dryness. The crude product was purified by preparative RP-HPLC and isolated by lyophilization to yield a white powder (2.31 mg; 68%). ^1H-NMR (DMSO-d6): δ=9.60 (s, 1H), 7.46 (d, 2H), 7.26 (t, 2H), 6.97 (t, 1H), 4.06 (t, 2H), 2.60 (t, 2H), 1.62 (m, 2H), 1.33 (m, 6H) ppm. ^13C-NMR (CDCl3): δ=153.6, 139.2, 128.7, 122.2, 118.1, 73.8, 64.1, 41.5, 33.3, 28.6, 26.1, 25.4 ppm. FT-IR (ATR): v=3343, 2939, 1707, 1542, 1448, 693 cm^−1. LC-MS: m/z=+237.17 [M+H]+(calcd 236.15 for C13H20N2O2).

For the next series, the target named is T1, streptavidin beads (Streptomyces avidinii, UniProt P22629).
T1 construct: purchased Invitrogen
T1 sequence (P22629 25-183): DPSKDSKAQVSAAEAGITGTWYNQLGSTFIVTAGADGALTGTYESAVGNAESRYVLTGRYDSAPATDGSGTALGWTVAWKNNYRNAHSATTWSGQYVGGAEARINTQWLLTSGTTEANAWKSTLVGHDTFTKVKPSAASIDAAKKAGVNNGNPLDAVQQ
In words: Capture of 125I-Rtx-TCO-biotin with streptavidin beads (gamma counting). It is filed as binding. Conditions: 1 hour incubation. The procedure: Rituximab (Rtx, 100 μg in 200 μL PBS, Roche) was radiolabeled with ^125I (Perkin Elmer) in a Pierce iodination tube (5 min incubation at room temperature) followed by size exclusion (SEC) purification (2 times, 0.5 mL Zeba desalting spin cartridge, 40 kDa MWCO, Pierce). Subsequently, non-radioactive Rtx was added to the solution (making 1 mg total Rtx), the pH was adjusted to 9 with 1 M sodium carbonate buffer and TCO-2-Biotin (3 eq., 5 mg/mL in DMSO) was added. The reaction mixture (200 μL) was incubated for 2 hours at 37° C. (350 rpm), purified once by SEC cartridge and then analyzed by SEC HPLC on an Agilent 1200 system equipped with a Gaby radioactive detector and UV detector and connected to a BioSep-SEC-S-3000 column (300×7.8 mm, 5 μm particles, Phenomenex) which was eluted at 1 mL/min with 0.1 M phosphate 0.15 M NaCl pH 6.8.
Subsequently, various amounts of ^125I-Rtx-TCO-biotin were combined with 1 mg streptavidin beads (Dynabeads MyOne Streptavidin Cl, Invitrogen) in 200 μL PBS and incubated for 1 hour at room temperature on a roller bench, to avoid bead settling. After incubation, the supernatants were removed and the beads were washed extensively with PBS.

A short description of series [4]: Testing the feasibility of the deprotection of TCO compounds upon reaction with tetrazine. The procedure: (§1) The feasibility to use the TCO group as a protective group in chemistry was studied by testing the stability of a range of TCO derivatives as model compounds under various conditions, and following the deprotection upon reaction with a tetrazine derivative under these conditions.
Typical Example for Testing the Feasibility of the Deprotection
The TCO stock solution (10 μL 25 mM in acetonitrile; 2.5*10^−7 mol) was added to a solution of the specific condition (100 μL). A solution of 3,6-dimethyl-1,2,4,5-tetrazine (8, 20 μL 25 mM in acetonitrile; 5.0*10^−7 mol) was added, and the mixture was stirred at the specific condition for a certain amount of time. The reaction was monitored by HPLC-MS/PDA analysis and/or GC-MS analysis, and the percentage of deprotection was estimated.
(§2) A) in acetonitrile with 5 equivalents of pyridine per TCO at 20° C.
(§3) B) in acetonitrile with 5 equivalents of DIPEA per TCO at 20° C.
(§4) C) in acetonitrile with 5 equivalents of piperidine per TCO at 20° C.
(§5) D) in acetonitrile with 5 equivalents of n-butylamine per TCO at 20° C.
(§6) E) in acetonitrile with 5 equivalents of 2-mercaptoethanol per TCO at 20° C.
(§7) F) in tetrahydrofuran with 5 equivalents of triphenylphosphine per TCO at 20° C.
(§8) G) in acetonitrile with 5 equivalents of DCC per TCO at 20° C.
(§9) H) in acetonitrile with 5 equivalents of PyBOP per TCO at 20° C.
(§10) I) in acetonitrile with 1 v % of formic acid at 20° C.
(§11) J) in chloroform at 20° C.
(§12) K) in chloroform with 1 v % of formic acid at 20° C.
(§13) L) in chloroform with 1 v % of trifluoroacetic acid at 20° C.
(§14) M) in chloroform with 10 v % of trifluoroacetic acid at 20° C.
(§15) N) in chloroform with 33 v % of trifluoroacetic acid at 20° C.
(§16) Z) in 25% acetonitrile in water at 20° C.

Assay in series [5]: as above
Conditions: 20° C.

Series [6] in a line: Testing the stability of a TCO compound under chemical conditions (HPLC-MS/PDA, GC-MS). It is filed as physicochemical. How it is done:
as §1
Typical Example for Testing the Stability of a TCO Compound
The TCO stock solution (10 μL 25 mM; 2.5*10^−7 mol) was added to a solution of the specific condition (100 μL). The mixture was stirred at the specific condition for a certain amount of time, and then the fate of the TCO compound was monitored by HPLC-MS/PDA analysis and/or GC-MS analysis, and an estimation of its stability was made.
as §2, §3, §4, §5, §6, §7, §8, §9, §10, §11, §12, §13, §14, §15, §16

The mark [7] stands for this setting: with 5 eq. of DIPEA in MeCN for 16 h, 20° C.
Setting [8] is: with 5 eq. of PyBOP in MeCN for 16 h, 20° C.
Where [9] appears, read: 0.1 M HCOOH buffer, pH = 2.0 for 2 day, 20° C.
Setting [10] is: 0.1 M NH3 buffer, pH = 11 for 5 day, 20° C.
The mark [11] stands for this setting: 0.1 M NH4OAc buffer, pH = 7.0 for 5 day, 20° C.
The mark [12] stands for this setting: 0.1 M NH4OAc buffer, pH = 8.0 for 8 day, 20° C.
Where [13] appears, read: 0.1 M NH4OAc buffer, pH = 10.0 for 8 day, 20° C.
[14] abbreviates: 10% MeCN in H2O at 70° C. for 5 day.

Where two headings read alike, the source gives them in different places. Bounds are passed on as bounds.

Turning to `COc1cccc2c1C(=O)c1c(O)c3c(c(O)c1C2=O)C[C@@](O)(C(=O)CO)C[C@@H]3O[C@H]1C[C@H](N)[C@H](O)[C@H](C)O1` [doxorubicin, reference compound], in series [1], the “time to complete release of free doxorubicin from the beads” value is at most 24 h and the “release of free doxorubicin from the beads” value is recorded as above 45%.
Turning to `COc1cccc2c1C(=O)c1c(O)c3c(c(O)c1C2=O)C[C@@](O)(C(=O)CO)C[C@@H]3O[C@H]1CC(NC(=O)OCc2ccc(OC(=O)N[C@@H]3CC/C=C/CC[C@@H]3N)cc2)[C@H](O)C(C)O1` (some centres unmarked) [TCO-3-Doxorubicin], in series [2], the “non-specific proDox adsorption on the bead surface” value is above 95%. Besides, the “TCO-doxorubicin bound to the beads” value in series [1] (BSA-tetrazine coated beads, 5 min incubation at 37° C., HPLC of supernatant) was “ca. 75%”. Also, in series [1], the “time to complete release of free doxorubicin from the beads” value was at most 24 h and the “release of free doxorubicin from the beads” value is given as above 45%.
Take `O=C(Nc1ccccc1)OCCCCCCNC(=O)OC1/C=C/CCCCC1` (centres unmarked) [(N-TCO-6-aminohexyl) phenylcarbamate]: the “deprotected according to 1H-NMR” value in series [3] is listed as “more than 95%”.
Take “^125I-Rtx: Rituximab (Rtx, Roche) radiolabeled with 125I”: the “radioactivity bound to streptavidin beads” value with streptavidin beads was “almost no radioactivity was bound”.
Turning to `NC1CC/C=C/CCC1NC(=O)Oc1ccccc1` (centres unmarked), the “Deprotection (%)” value is 98.8% in series [4] (setting [7]), 24.4% in series [4] (setting [8]), 33.9% in series [5] (with 5 eq. of HCOOH in MeCN for 16 h) and 71.7% in series [5] (with 5 eq. of pyridine in MeCN for 16 h). Besides, the half-life in series [6] (0.1 M NH4OAc buffer, pH = 7.0, 20° C., read-out: Stability of TCO, t1/2) was 80 h; in series [6] (0.1 M NH4OAc buffer, pH = 8.0, 20° C., read-out: Stability of TCO, t1/2) it was 17 h. Moreover, in series [6] (0.1 M NH4OAc buffer, pH = 9.0, 20° C., read-out: Stability of TCO, t1/2), the half-life at 2.3 mM stood at 5.3 h. Also, the “Stability of TCO: cyclization” value in series [6] (setting [7]) was determined as 6.7%; in series [6] (with 5 eq. of HCOOH in MeCN for 16 h, 20° C.), 1.9%; in series [6] (setting [8]), 5.9%; in series [6] (with 5 eq. of pyridine in MeCN for 16 h, 20° C.), 2.6%.
Regarding `COc1cc(COC(=O)NC2CC/C=C/CCC2N)cc(OC)c1OC` (centres unmarked), the “Deprotection (%)” value in series [4] (setting [9]) is 0%; in series [4] (setting [10]), 87%; in series [4] (setting [11]), 0%; in series [4] (setting [12]) it was 0%; in series [4] (setting [13]), 81%; in series [4] (setting [14]), 50%. For the same molecule, the “Deprotection (%)” value is 25% in series [5] (0.1 M NH4OAc buffer, pH = 9.0 for 8 day) and 0% in series [5] (10% MeCN in H2O for 5 day). Moreover, the “Stability of TCO” value in series [6] (setting [9]) is on record as “stable”; in series [6] (setting [11]), “stable”; in series [6] (setting [12]), “stable”; in series [6] (0.1 M NH4OAc buffer, pH = 9.0 for 8 day, 20° C.) it was “stable”; in series [6] (setting [13]), “stable”; in series [6] (10% MeCN in H2O for 5 day, 20° C.), “stable”. In addition, the “Stability of TCO: cyclization” value in series [6] (setting [10]) and in series [6] (setting [14]) was below 5% in each case.
